Columns and labels:
Type in all cases: in vivo
[1] = system: retina of the constitutively active Akt-Mer Tg mouse; assay: Retina cup observation by optical microscope after persistent activation of Akt (Example 3); settings: 4-OHT i.p. 100 μg/day×3 days, 4th to 6th day after birth; observed 7th day; vs mouse without 4-OHT
Experimental: In this example, an influence of the persistent activation of Akt on the retina in the constitutively active Akt-Mer Tg mouse produced in Example 1 was investigated. Here, the influence on the retina was confirmed by observing the retina of the constitutively active Akt-Mer Tg mouse in which Akt had been persistently activated using an optical microscope.
To the constitutively active Akt-Mer Tg mouse produced in Example 1, 10 μg/μl 4-OHT was intraperitoneally administered at a dose of 10 μl per day from the fourth day to the sixth day after birth (total dose was 100 μg/day×3 days). On the seventh day after birth, perfusion fixation from the heart was performed using 4% paraformaldehyde (abbreviated as “PFA” hereinafter). Then, a retinal cup was produced from the removed eyeball, and an optical micrograph showing the retina was obtained using MZ16F (Leica). A mouse to which 4-OHT was not administered was used as a control and subjected to the same treatment, and then an image was obtained.

[2] = system: retina of the constitutively active Akt-Mer Tg mouse; assay: Retinal vascular permeability, Evans blue leakage (Example 6); settings: 4-OHT i.p. 10 μg/μl, 10 μl per day, 4th to 6th day after birth
Experimental: To the constitutively active Akt-Mer Tg mouse produced in Example 1, 10 μg/μl 4-OHT was intraperitoneally administered at a dose of 10 μl per day from the fourth day to the sixth day after birth (total dose was […]). On the seventh day after birth, 20 μl of Evans blue was intraperitoneally administered, and 1 hour after this, perfusion fixation from the heart was performed using 4% PFA, and then, the eyeball was removed. An image of the removed eyeball was obtained using an MZ16F stereoscopic microscope (Leica). A mouse to which 4-OHT was not administered was used as a control and subjected to the same treatment, and then an image was obtained.
Furthermore, for the purpose of evaluating the vascular permeability in a quantitative manner, the fluorescence intensity of Evans blue leaking from the retinal blood vessels was measured using an LSM710 confocal microscope (Zeiss) (***<0.001).

[3] = system: retina of the constitutively active Akt-Mer Tg mouse; assay: Retinal cryosection with Hoechst staining, retinal surface layer (Example 7); settings: 4-OHT i.p. 100 μg/day×3 days; 7th day after birth; vs control
Experimental: To the constitutively active Akt-Mer Tg mouse produced in Example 1, 10 μg/μl 4-OHT was intraperitoneally administered at a dose of 10 μl per day from the fourth day to the sixth day after birth (total dose was 100 μg/day×3 days). On the seventh day after birth, perfusion fixation from the heart was performed using 4% PFA. The eyeball was removed, and then a retinal cryosection was produced. The nuclei were visualized through Hoechst staining, and an image was obtained using a microscope (Zeiss). A mouse to which 4-OHT was not administered was used as a control and subjected to the same treatment, and then an image was obtained.

[4] = system: retina of the constitutively active Akt-Mer Tg mouse; assay: Whole-mount immunostaining (anti PECAM-1) of the retina, retinal vascular morphology (Examples 4, 5)
Experimental: (§1) To the constitutively active Akt-Mer Tg mouse produced in Example 1, 10 μg/μl 4-OHT was intraperitoneally administered at a dose of 10 μl per day from the fourth day to the sixth day after birth (total dose was 100 μg/day×3 days). On the seventh day after birth, perfusion fixation from the heart was performed using 4% PFA, and then a retinal cup was produced from the removed eyeball. Fluorescent immunostaining using an anti PECAM-1 (platelet endothelial cell adhesion molecule-1: CD31) antibody was performed to stain vascular endothelial cells. Subsequently, a flat-mount image of the retina was obtained using AxioObserver (Zeiss). A mouse to which 4-OHT was not administered was used as a control and subjected to the same treatment, and then an image was obtained.
For the purpose of further investigating the retinal vascular morphology in detail, the vascular lengths and vascular diameters were measured. Specifically, regarding the vascular lengths, a distance from the peripheral edge of the optic papilla to the leading end of the extending blood vessel along a vein was measured using Photoshop CS5 software. The vascular lengths at four positions in one retina were measured and quantified. Regarding the arterial diameters and venous diameters, the thickness of arteries and veins located on the circumference of a circle with a radius of 1500 μm about the optical papilla was measured also using Photoshop CS5 software (**<0.01).
as §1, with “1, 1” for “1, 10”, “was 10” for “was 100”, “days). This dose was one tenth of the dose in the previous examples.” for “days).”, “was produced.” for “was produced from the removed eyeball.”, “PECAM-1 (CD31)” for “PECAM-1 (platelet endothelial cell adhesion molecule-1: CD31)”, “was performed, and” for “was performed to stain vascular endothelial cells. Subsequently,”
For the purpose of further investigating the retinal vascular morphology in detail, the number of microaneurysms was measured. Specifically, regarding the measurement of the number of microaneurysms, the number of microaneurysms in one retina was manually measured using the flat-mount image of the retina.

[5] = 4-OHT i.p. 100 μg/day×3 days, observed 7th day after birth, vs control

Substance: 4-hydroxytamoxifen [4-OHT]
- retinal hemorrhage [1]: punctuate retinal hemorrhage was observed
- vascular permeability (leakage of Evans blue from blood vessels) ([2]; Evans blue i.p. on 7th day, 1 hour): the vascular permeability was increased
- fluorescence intensity of Evans blue leaking from the retinal blood vessels ([2]; confocal microscope, ***<0.001 vs control): significantly larger than that in the control
- swelling of overall retina, particularly the surface layer [3]: significantly swollen
- number of microaneurysms in one retina (average) ([4]; 4-OHT i.p. 10 μg/day×3 days, 7th day after birth, hardly observed in control): 90
- vascular network formation ([4]; 4-OHT i.p. 100 μg/day×3 days, 4th to 6th day after birth, observed 7th day, vs control): the formation of a dense vascular network was observed
- formation of microaneurysms ([4]; 4-OHT i.p. 100 μg/day×3 days, observed 7th day after birth): the formation of microaneurysms, which have a varicose structure, was induced
- extension of blood vessels [4, 5]: the extension of blood vessels was delayed compared with the control
- vascular diameters (arteries, veins, capillaries) [4, 5]: the overall retinal blood vessels significantly expanded
- formation of microaneurysms ([4]; low-concentration 4-OHT i.p. 10 μg/day×3 days, observed 7th day after birth): the formation of microaneurysms was also induced
